{"source": "patent US9809537B2", "about": "“Glycosidase inhibitors and uses thereof” (Alectos Therapeutics Inc., priority 2012, dated 2017)", "key": {"[1]": {"test_system": "O-GlcNAcase in rat PC-12 cells", "test": "Cell-based ELISA of O-GlcNAcylated protein (RL-2 antibody)", "conditions": "24 h treatment, O-GlcNAcylated protein level", "description": "Assay for Determination of Cellular Activity for Compounds that Inhibit O-GlcNAcase Activity\nInhibition of O-GlcNAcase, which removes O-GlcNAc from cellular proteins, results in an increase in the level of O-GlcNAcylated protein in cells. An increase in O-GlcNAcylated protein can be measured by an antibody, such as RL-2, that binds to O-GlcNAcylated protein. The amount of O-GlcNAcylated protein:RL2 antibody interaction can be measured by enzyme linked immunosorbant assay (ELISA) procedures.\nA variety of tissue culture cell lines, expressing endogenous levels of O-GlcNAcase, can be utilized; examples include rat PC-12, and human U-87, or SK—N—SH cells. […] If desired, the total protein concentration of samples is determined using 20 μL of the sample using the BCA method.\nThe ELISA portion of the assay is performed in a black Maxisorp 96-well plate that is coated overnight at 4° C. with 100 μL/well of the cell lysate (1:10 dilution of the lysate with PBS containing protease inhibitors, phosphatase inhibitors, and PMSF). […] The detection reaction is incubated for 15 minutes at room temperature and then read with excitation at 530 nm and emission at 590 nm.\nThe amount of O-GlcNAcylated protein, as detected by the ELISA assay, is plotted for each concentration of test compound using standard curve fitting algorithms for sigmoidal dose response curves. […]"}, "human O-GlcNAcase": {"target": "T1, human O-GlcNAcase (Homo sapiens, UniProt O60502)", "T1 sequence (O60502 1-916)": "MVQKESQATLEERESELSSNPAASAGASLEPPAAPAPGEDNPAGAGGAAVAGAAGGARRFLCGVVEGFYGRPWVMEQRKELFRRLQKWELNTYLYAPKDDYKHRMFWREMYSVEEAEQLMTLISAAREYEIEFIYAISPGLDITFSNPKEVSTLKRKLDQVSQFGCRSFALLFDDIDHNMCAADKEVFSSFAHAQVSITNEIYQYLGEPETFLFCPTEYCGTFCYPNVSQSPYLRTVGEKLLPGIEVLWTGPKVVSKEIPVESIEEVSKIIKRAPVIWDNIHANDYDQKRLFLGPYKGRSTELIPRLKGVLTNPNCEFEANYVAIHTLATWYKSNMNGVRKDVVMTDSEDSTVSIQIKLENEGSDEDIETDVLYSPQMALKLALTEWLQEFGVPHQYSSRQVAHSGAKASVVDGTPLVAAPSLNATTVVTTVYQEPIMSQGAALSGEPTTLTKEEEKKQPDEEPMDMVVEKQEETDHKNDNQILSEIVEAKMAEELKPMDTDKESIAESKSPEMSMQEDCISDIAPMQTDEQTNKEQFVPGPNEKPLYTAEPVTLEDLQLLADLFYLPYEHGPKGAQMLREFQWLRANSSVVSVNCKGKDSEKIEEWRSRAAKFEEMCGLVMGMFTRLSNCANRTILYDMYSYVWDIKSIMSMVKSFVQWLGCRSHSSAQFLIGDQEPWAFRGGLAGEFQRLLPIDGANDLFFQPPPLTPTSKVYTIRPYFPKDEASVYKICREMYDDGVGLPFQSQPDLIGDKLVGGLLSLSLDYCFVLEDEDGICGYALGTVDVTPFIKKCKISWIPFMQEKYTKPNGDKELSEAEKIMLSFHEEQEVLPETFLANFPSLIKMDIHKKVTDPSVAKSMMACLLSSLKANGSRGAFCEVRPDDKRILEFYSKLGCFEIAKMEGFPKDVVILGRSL", "test": "Fluorescence-based assay for KI values for inhibition of O-GlcNAcase activity", "assay_type": "biochemical", "conditions": "purified human O-GlcNAcase, 4-methylumbelliferyl GlcNAc substrate, pH 7.0, Cheng-Prusoff; read-out: Fluorescence-based hOGA Ki", "method": "Assay for Determination of KI Values for Inhibition of O-GlcNAcase Activity\nExperimental Procedure for Kinetic Analyses:\nEnzymatic reactions were carried out in a reaction containing 50 mM NaH2PO4, 100 mM NaCl and 0.1% BSA (pH 7.0) using 2 mM 4-Methylumbelliferyl N-acetyl-β-D-glucosaminide dihydrate (Sigma M2133) dissolved in ddH2O, as a substrate. The amount of purified human O-GlcNAcase enzyme used in the reaction was 0.7 nM. Test compound of varying concentrations was added to the enzyme prior to initiation of the reaction. The reaction was performed at room temperature in a 96-well plate and was initiated with the addition of substrate. The production of fluorescent product was measured every 60 sec for 45 min with a Tecan Infinite M200 plate-reader with excitation at 355 nm and emission detected at […], with 4-Methylumbelliferone (Sigma M1381) used to produce a standard curve. The slope of product production was determined for each concentration of compound tested and plotted, using standard curve fitting algorithms for sigmoidal dose response curves. The values for a four parameter logistic curve fit of the data were determined.\nKI values were determined using the Cheng-Prusoff equation; the Km of O-GlcNAcase for substrate was 0.2 mM."}}, "data": [{"compound": "CC(=O)NC[C@@H]1[C@@H](O)[C@H](O)[C@@H](CO)N1CCCc1ccc(-c2ccccc2)cc1", "note": "[Example 3, N-(((2R,3R,4R,5R)-1-(3-([1,1′-biphenyl]-4-yl)propyl)-3,4-dihydroxy-5-(hydroxymethyl)pyrrolidin-2-yl)methyl)acetamide]", "values": [{"measurement": "EC50", "setting": "[1]", "result": 0.665, "unit": "µM"}, {"measurement": "Ki", "setting": "human O-GlcNAcase", "result": 0.016, "unit": "µM"}]}]}
